Like-named read-outs stand apart in the source and are kept apart here.

In test [1] the target is T1, TbINO1 (Trypanosoma brucei brucei, UniProt Q5QQ46).
T1 sequence (Q5QQ46 1-528): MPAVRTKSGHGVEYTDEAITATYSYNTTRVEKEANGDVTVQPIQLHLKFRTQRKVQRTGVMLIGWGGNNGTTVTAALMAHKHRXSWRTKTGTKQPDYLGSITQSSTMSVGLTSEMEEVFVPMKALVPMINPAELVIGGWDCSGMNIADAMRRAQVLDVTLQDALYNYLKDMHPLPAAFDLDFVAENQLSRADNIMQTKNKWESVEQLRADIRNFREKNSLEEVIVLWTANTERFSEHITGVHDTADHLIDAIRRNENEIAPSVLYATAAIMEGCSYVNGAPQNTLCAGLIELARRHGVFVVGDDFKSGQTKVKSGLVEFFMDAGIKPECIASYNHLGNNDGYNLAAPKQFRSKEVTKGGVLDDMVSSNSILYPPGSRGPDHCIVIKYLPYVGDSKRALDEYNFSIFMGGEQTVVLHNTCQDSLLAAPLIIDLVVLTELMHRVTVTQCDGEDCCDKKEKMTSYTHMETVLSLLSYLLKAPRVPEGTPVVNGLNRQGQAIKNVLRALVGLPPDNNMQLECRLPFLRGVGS
Nature of the test: biochemical. The class given is binding. To be noted: for TbINO1 Tm increase: positive control; for ΔTm at 1000 µM: read-out: Tb Ino1 Tm Shift [˚C].

For test [2], the system named is HeLa cells. The test is described as follows: cells. To be noted: for viability at 500 µM: Homo sapiens, HeLa, 65 h; for HeLa Cells Alamar Blue: Supplementary Table 1. The method, boiled down:
(§1)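 HeLa and A549 cells grown in DMEM with 10% FCS and 2 mM L-Glutamine were seeded at 2 × 10^4 cells/well. They were exposed to compounds for ~65 hours, then Alamar Blue was added for a further 5 hours to measure viability.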

For test [3], the system named is A549 cells. Nature of the test: Cytotoxicity against A549 cells, Alamar Blue. The class given is cell-based. To be noted: Supplementary Table 1, compound 0.5 mM, percentage of controls (n=1); for viability at 500 µM: Homo sapiens, A549, 65 h. The method, boiled down:
as §1

The mark [4] stands for this setting: read-out: HeLa Cells Alamar Blue.
[5] abbreviates: read-out: HeLa Cells Alamar Blue, Supplementary Table 1, compound 0.5 mM, percentage of controls, mean ± SD (n=3) or SE (n=2).
Setting [6] is: compound 0.5 mM, percentage of controls, mean ± SD (n=3) or SE (n=2).

Regarding `O=CC[C@@H](O)[C@H](O)[C@H](O)COP(=O)(O)O` [2-deoxy-glucose-6-phosphate, reference compound], in test [1] (inhibitor, 4 mM), the “TbINO1 Tm increase” value was 2.84 ± 0.47 °C.

On to `NCc1ccoc1` [compound 5, 3‐furylmethylamine], for which the ΔTm at 1000 µM in test [1] came to 0.3 ± 0.06 °C. Moreover, the viability at 500 µM in test [2] (setting [4]) was determined as 101 ± 5.3%; in test [3], 113%.

On to `Cc1cc(N)[nH]n1` [compound 6, 3‐methyl‐1H‐pyrazol‐5‐amine], for which the ΔTm at 1000 µM in test [1] was found to be 0.2 ± 0.06 °C. For the same compound, the viability at 500 µM in test [2] (setting [4]) was found to be 102 ± 3.3%; in test [3], 121%.

Take `Cn1nccc1N` [compound 7, 1‐methyl‐1H‐pyrazol‐5‐ylamine]: the ΔTm at 1000 µM in test [1] is 0.12 ± 0.06 °C. Moreover, the viability at 500 µM in test [2] (setting [4]) came out at 106 ± 6.2%; in test [3], 124%.

For the compound `Cn1ccc(N)n1` [compound 8, 1‐methyl‐1H‐pyrazol‐3‐amine], in test [1], the ΔTm at 1000 µM came out at 0.09 ± 0.07 °C. In addition, the results for the viability at 500 µM in test [2] (setting [4]) and in test [3] were 107 ± 7.8% and 122%, respectively.

Regarding `Cc1cc(N)no1` [compound 9, 5‐methylisoxazol‐3‐amine], the ΔTm at 1000 µM in test [1] is 0.13 ± 0.06 °C. The figures for the viability at 500 µM in test [2] (setting [5]) and in test [3] were 105 ± 6.2% and 112%, respectively.

Take `CC1OCCC1=O` (stereo not drawn) [compound 11, 2‐methyltetrahydrofuran‐3‐one]: in test [1], the ΔTm at 1000 µM is 0.77 ± 0.06 °C. Further, the viability at 500 µM in test [2] (setting [4]) was determined as 101 ± 5.4%; in test [3], 85.3%.

Take `O=C1CCOCC1` [compound 12, tetrahydro‐4H‐pyran‐4‐one]: the ΔTm at 1000 µM in test [1] stood at 0.23 ± 0.07 °C. Further, the viability at 500 µM in test [2] (setting [4]) turned out to be 100 ± 3.5%; in test [3] it was 97.4%.

On to `C1CNCCNC1` [compound 13, 1,4‐diazepane], for which, in test [1], the ΔTm at 1000 µM was found to be 0.4 ± 0.07 °C. For the same compound, the results for the viability at 500 µM in test [2] (setting [4]) and in test [3] were 88.5 ± 11.1% and 82.4%, respectively.

Take `Cn1cncc1C#N` [compound 15, 1‐methyl‐1H‐imidazole‐5‐carbonitrile]: in test [1], the ΔTm at 1000 µM is 0.08 ± 0.07 °C. Further, the viability at 500 µM amounted to 101 ± 9.5% in test [2] (setting [4]) and 90% in test [3].

Take `Cc1ccc(N)nc1` [compound 16, 5‐methylpyridin‐2‐amine]: in test [1], the ΔTm at 1000 µM was determined as 0.12 ± 0.06 °C. Besides, the values for the viability at 500 µM in test [2] (setting [4]) and in test [3] were 101 ± 1.1% and 89.4%, respectively.

Regarding `Nc1cccc(COc2ccccc2)c1` [compound 616, 3‐(phenoxymethyl)aniline], the figures for the viability at 500 µM in test [2] (setting [4]) and in test [3] were 80.5 ± 17.9% and 57.5%, respectively.

Take `OCc1ccccc1Oc1ccccc1` [compound 621, (2‐phenoxyphenyl)methanol]: the viability at 500 µM in test [2] (setting [4]) was 74.9 ± 14.8%; in test [3] it was 73.7%.

Regarding `OCc1ccc(Oc2ccccc2)cc1` [compound 622, (4‐phenoxyphenyl)methanol], the viability at 500 µM was 78.3 ± 15.4% in test [2] (setting [4]) and 70.7% in test [3].

As for `Cc1nc(-c2ccccc2)ncc1CO` [compound 623, (4‐methyl‐2‐phenyl‐5‐pyrimidinyl)methanol], the “HeLa Cells Alamar Blue” value in test [2] (setting [6]) is 66.5 ± 11.6 percentage of controls. In addition, the “A549 Cells Alamar Blue” value in test [3] is reported as 85.4 percentage of controls.

For the compound `Nc1ncccc1OCc1ccccc1` [compound 624, 3‐(benzyloxy)pyridin‐2‐amine], the viability at 500 µM in test [2] (setting [5]) was 72.9 ± 14.8%; in test [3], 82.7%.

In the case of `OCc1ccc(Oc2ccccn2)cc1` [compound 629, [4‐(pyrid‐2‐yloxy)phenyl]methanol], the viability at 500 µM in test [2] (setting [4]) worked out at 84.1 ± 9.9%; in test [3] it was 96.1%.

As for `OCc1cccc(Oc2ccccn2)c1` [compound 630, [3‐(pyrid‐2‐yloxy)phenyl]methanol], the results for the viability at 500 µM in test [2] (setting [4]) and in test [3] were 80 ± 1% and 98.3%, respectively.

Consider `NC(=S)COc1cccc(Cl)c1` [compound 633, 2‐(3‐chlorophenoxy)ethanethioamide], for which the viability at 500 µM in test [2] (setting [4]) worked out at 46.9 ± 11.1%; in test [3], 90.3%.

Consider `Cc1nn(-c2ccccc2)c(C)c1CO` [compound 636, (3,5‐dimethyl‐1‐phenyl‐1H‐pyrazol‐4‐yl)methanol], for which the “HeLa Cells Alamar Blue” value in test [2] (setting [6]) is 73 ± 13.4 percentage of controls. Further, in test [3], the “A549 Cells Alamar Blue” value is 94.9 percentage of controls.

For `N#CC(c1ccccc1)N1CCOCC1` (stereo not drawn) [compound 638, 2‐morpholino‐2‐phenylacetonitrile], the viability at 500 µM in test [2] (setting [4]) stood at 80.5 ± 8.2%; in test [3], 89.8%.

In the case of `c1ccc(-c2cn3c(n2)SCC3)cc1` [compound 639, 6‐phenyl‐2,3‐dihydroimidazo[2,1‐b][1,3]thiazole], the “HeLa Cells Alamar Blue” value in test [2] (setting [6]) is 61 ± 9.8 percentage of controls. Further, in test [3], the “A549 Cells Alamar Blue” value is on record as 109.1 percentage of controls.

Regarding `O=C(O)CSc1ccc(Cl)cc1` [compound 641, 2‐[(4‐chlorophenyl)thio]acetic acid], the viability at 500 µM in test [2] (setting [4]) was determined as 105 ± 3.7%; in test [3] it was 119%.

With `Cc1oc(-c2ccccc2)nc1CCO` [compound 643, 2‐(5‐methyl‐2‐phenyl‐1,3‐oxazol‐4‐yl)ethan‐1‐ol], in test [2] (setting [6]), the “HeLa Cells Alamar Blue” value was 45.5 ± 7.7 percentage of controls. In test [3], the “A549 Cells Alamar Blue” value was 104.4 percentage of controls.

`CC(=O)Nc1ccc2c(c1)CCCC2=O` [compound 644, N1‐(5‐oxo‐5,6,7,8‐tetrahydronaphthalen‐2‐yl)acetamide]: the “HeLa Cells Alamar Blue” value in test [2] (setting [6]) is 99.2 ± 7.5 percentage of controls. The “A549 Cells Alamar Blue” value in test [3] is recorded as 93.5 percentage of controls.

Consider `O=C(O)c1ccc(-c2ccccc2)s1` [compound 649, 5‐phenylthiophene‐2‐carboxylic acid], for which the viability at 500 µM in test [2] (setting [4]) turned out to be 122 ± 18.7%; in test [3] it was 141%.

Consider `O=C(O)c1cccc(-c2ccsc2)c1` [compound 650, 3‐thien‐3‐ylbenzoic acid], for which the viability at 500 µM is 114 ± 15.9% in test [2] (setting [4]) and 165% in test [3].

Take `NC(=O)c1ccccc1N1CCCCC1` [compound 651, 2‐piperidinobenzamide]: the results for the viability at 500 µM in test [2] (setting [4]) and in test [3] were 82.4 ± 5.4% and 93.1%, respectively.

For `CNCc1cccc(-c2nccs2)c1` [compound 653, N‐methyl‐3‐(1,3‐thiazol‐2‐yl)benzylamine], the viability at 500 µM was found to be 93.3 ± 2.7% in test [2] (setting [4]) and 99.6% in test [3].

With `CNCc1ccc(-c2nccs2)cc1` [compound 654, N‐methyl‐4‐(1,3‐thiazol‐2‐yl)benzylamine], the viability at 500 µM in test [2] (setting [4]) came to 66.2 ± 16.9%; in test [3], 114%.

On to `NCc1cccc(CN2CCCCC2)c1` [compound 655, 3‐piperidin‐1‐ylmethyl benzylamine], for which the viability at 500 µM in test [2] (setting [4]) stood at 73.7 ± 15.9%; in test [3], 126%.

For the compound `CNCc1cccc(N2CCCCC2)c1` [compound 656, N‐methyl‐N‐(3‐piperidin‐1‐ylbenzyl)amine], the values for the viability at 500 µM in test [2] (setting [4]) and in test [3] were 27.4 ± 13.3% and 104%, respectively.

On to `CNCc1ccc(N2CCCCC2)cc1` [compound 657, N‐methyl‐N‐(4‐piperidin‐1‐ylbenzyl)amine], for which the figures for the viability at 500 µM in test [2] (setting [4]) and in test [3] were 40.9 ± 12% and 77.4%, respectively.

`NCc1ccc(CN2CCCCC2)cc1` [compound 658, [4‐(piperidinomethyl)phenyl]methylamine]: in test [2] (setting [6]), the “HeLa Cells Alamar Blue” value is 22.8 ± 5.5 percentage of controls. For the same compound, the “A549 Cells Alamar Blue” value in test [3] is 123.5 percentage of controls.

On to `O=C(O)Cc1ccc(Cl)c(Cl)c1` [compound 659, 2‐(3,4‐dichlorophenyl)acetic acid], for which the results for the viability at 500 µM in test [2] (setting [4]) and in test [3] were 74 ± 17.1% and 106%, respectively.

Take `COc1cc2c(cc1OC)C(C)=NCC2` [compound 664, 6,7‐dimethoxy‐1‐methyl‐3,4‐dihydroisoquinoline]: the “HeLa Cells Alamar Blue” value in test [2] (setting [6]) was 75.4 ± 2.2 percentage of controls. In addition, the “A549 Cells Alamar Blue” value in test [3] is 77.7 percentage of controls.

As to `O=C(O)c1ccc(CN2CCCC2)cc1` [compound 665, 4‐(pyrrolidin‐1‐ylmethyl)benzoic acid], the viability at 500 µM is 90.3 ± 6.3% in test [2] (setting [4]) and 104% in test [3].

Consider `OCc1ccc(CN2CCCCC2)cc1` [compound 669, [4‐(piperidin‐1‐ylmethyl)phenyl]methanol], for which the viability at 500 µM in test [2] (setting [4]) turned out to be 93.2 ± 12.6%; in test [3] it was 121%.

For `CNCc1ccnc(N2CCCCC2)c1` [compound 671, N‐methyl‐N‐[(2‐piperidin‐1‐ylpyridin‐4‐yl)methyl]amine], the “HeLa Cells Alamar Blue” value in test [2] (setting [6]) is listed as 54.8 ± 9.2 percentage of controls. Besides, the “A549 Cells Alamar Blue” value in test [3] is 82.7 percentage of controls.

In the case of `CCOC(=O)c1sc(Cl)nc1C` [compound 672, ethyl 2‐chloro‐4‐methyl‐1,3‐thiazole‐5‐carboxylate], the “HeLa Cells Alamar Blue” value in test [2] (setting [6]) is 89.6 ± 12.5 percentage of controls. Also, the “A549 Cells Alamar Blue” value in test [3] is 60.5 percentage of controls.

On to `O=C[C@H](O)[C@@H](O)[C@H](O)[C@H](O)COP(=O)(O)O` [glucose-6-phosphate, reference compound], for which the “TbINO1 Tm increase” value in test [1] (substrate, 5 mM) was 0.70 ± 0.28 °C.

Values taken from paper PMC3199943, “Screening the MayBridge Rule of 3 Fragment Library for Compounds That Interact with the Trypanosoma brucei myo-Inositol-3-Phosphate Synthase and/or Show Trypanocidal Activity” (Molecular Biology International, 2011).
